Experimental data reported in patent publication US20210024507A1, “Compounds” (Step Pharma S.A.S., priority 2018, published 2021).

Assays:
human CTPS1 [1] = biological target: T1, human CTPS1 (Homo sapiens, UniProt P17812); assay: Human CTPS1 enzyme inhibition (ADP-Glo Max assay); type: biochemical; details: human full length CTPS1, 25° C., read-out: CTPS1 (Human CTPS1 Enzyme Inhibition, IC50 grouped by potency range)
T1 construct: purchased Proteros biostructures GmbH
T1 sequence (P17812 1-591): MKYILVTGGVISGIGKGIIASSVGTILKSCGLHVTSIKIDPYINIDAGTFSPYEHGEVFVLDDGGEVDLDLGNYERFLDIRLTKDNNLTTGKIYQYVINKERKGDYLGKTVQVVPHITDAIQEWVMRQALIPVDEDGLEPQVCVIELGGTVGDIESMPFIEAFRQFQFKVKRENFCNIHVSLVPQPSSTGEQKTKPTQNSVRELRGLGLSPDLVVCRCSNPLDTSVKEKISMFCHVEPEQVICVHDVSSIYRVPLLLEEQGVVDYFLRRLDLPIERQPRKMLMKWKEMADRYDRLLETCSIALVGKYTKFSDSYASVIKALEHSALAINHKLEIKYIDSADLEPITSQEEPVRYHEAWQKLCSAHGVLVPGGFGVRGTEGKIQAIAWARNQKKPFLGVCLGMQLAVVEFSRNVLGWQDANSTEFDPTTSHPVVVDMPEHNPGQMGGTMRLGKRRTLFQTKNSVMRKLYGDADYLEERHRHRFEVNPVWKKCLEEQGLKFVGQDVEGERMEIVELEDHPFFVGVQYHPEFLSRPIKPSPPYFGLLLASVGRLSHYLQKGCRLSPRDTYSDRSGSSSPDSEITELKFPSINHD
Procedure: The enzyme inhibitory activities of compounds invented against the target of interest were determined using the ADP-GIoTM Max assay (Promega, UK). Assays for human CTPS1 were performed in lx assay buffer containing 50mM Tris, 10mM MgCl2, 0.01% Tween-20, pH to 8.0 accordingly. Finally, immediately before use, L-cysteine was added to the lx assay buffer to a final concentration of 2mM. All reagents are from Sigma-Aldrich unless specified otherwise. Human full length active C-terminal FLAG-Hiss-tag CTPS1 (UniProtKB - P17812, CTPS[1-591]-[…]) was obtained from Proteros biostructures GmbH.
Assay Procedure 3× human CTPS1 protein was prepared in lx assay buffer to the final working protein concentration required for the reaction. A 2uL volume per well of 3x human CTPS1 protein was mixed with 2uL per well of 3× test compound (compound prepared in lx assay buffer to an appropriate final 3× compound concentration respective to the concentration response curve designed for the compounds under test) for 10 minutes at 25° C. The enzymatic reaction was then initiated by addition of a 2uL per well volume of a pre-mixed substrate mix (UltraPure ATP from ADP-GIo™ Max kit (0.31mM), GTP (0.034mM), UTP (0.48mM) and L-glutamine (0.186mM)) and the mixture was incubated for an appropriate amount of time within the determined linear phase of the reaction at 25° C. under sealed plate conditions with constant agitation at 500 revolutions per minute (rpm). ADP-GIo™ Max reagent was added for 60 minutes ([…] per well) and subsequently ADP-GIo™ Max development reagent was added for 60 minutes (12uL per well) prior to signal detection in a microplate reader (EnVision® Multilabel Reader, Perkin Elmer). Following each reagent addition over the course of the assay, assay plates were pulse centrifuged for 30 seconds at 500rpm.
In all cases, the enzyme converts ATP to ADP and the ADP-GIo™ Max reagent subsequently depletes any remaining endogenous ATP in the reaction system. The ADP-GIo™ Max detection reagent converts the ADP that has been enzymatically produced back into ATP and using ATP as a substrate together with luciferin for the enzyme luciferase, light is generated which produces a detectable luminescence. […] The percentage inhibition produced by each concentration of compound was calculated using the equation shown below: […]
(§1) Percentage inhibition was then plotted against compound concentration, and the 50% inhibitory concentration (IC50) was determined from the resultant concentration-response curve.

human CTPS1 [2] = assay: RapidFire/MS-based enzyme selectivity assay, human CTPS1; type: biochemical; details: calculated from the CTPS1 and CTPS2 IC50 values
Procedure: The enzyme inhibitory activities against each target isoform of interest may be determined for the compounds of the invention using an optimised RapidFire high-throughput mass spectrometry (RF/MS) assay format. RF/MS assays for both human CTPS1 and CTPS2 may be performed in assay buffer consisting of 50mM HEPES (Merck), 20mM MgCl2, 5mM KCI, 1mM DTT, 0.01% Tween-20, pH to 8.0 accordingly. Human full-length active C-terminal FLAG-His-tag CTPS1 (UniProtKB - P17812, CTPS[1-591]-[…]) may be obtained from Proteros biostructures GmbH. Human full length active C-terminal FLAG-His-Avi tagged CTPS2 (UniProtKB-Q9NRF8, CTPS2 [1-586]- […]) may be obtained from Harker Bio.
Human CTPS (1 or 2) protein may be prepared in lx assay buffer to the final working protein concentration required for the reaction. A 2uL volume per well of 2× CTPS (1 or 2) protein may be mixed with 40nL of compound using acoustic (ECHO) delivery and incubated for 10 minutes at 25° C. Each isoform enzymatic reaction may be subsequently initiated by addition of 2uL per well of a 2× substrate mix in assay buffer. For hCTPS1: ATP (0.3mM), UTP (0.2mM), GTP (0.07mM) and L-glutamine (0.1mM). For hCTPS2: ATP (0.1mM), UTP (0.04mM), GTP (0.03mM) and L-glutamine (0.1mM). Each mixture may be incubated for an appropriate amount of time per isoform within the determined linear phase of the reaction at 25° C. A 60uL volume of stop solution (1% formic acid with 0.5uM ^13C9-^15N3-CTP in H2O) may be added and the plate immediately heat-sealed and centrifuged for 10 minutes at 4,000rpm. Following centrifugation, plates may be loaded onto the Agilent RapidFire microfluidic solid phase extraction system coupled to an AP14000 triple quadrupole mass spectrometer (RF/MS) for analysis.
In all cases, the enzyme converts UTP to CTP. Highly specific and sensitive multiple reaction monitoring (MRM) MS methods may be optimised for the detection of the enzymatic reaction product, CTP, and the stable isotope labelled product standard ^13C9-^15N3-CTP. Readout for data analysis may be calculated as the ratio between the peak area of the product CTP and the internal standard ^13C9-^15N3-CTP. For data reporting, the following equation may be used:
[formula] (R=ratio/readout, P=product signal area, IS=internal standard signal area)
For each screening plate, the means of the negative (DMSO) and positive control values were used for the calculation of the respective assay window (S/B) and Z′ values. The median of the respective control values was used for calculation of percent inhibition according to the following equation:
[formula] (I=Inhibition, Rneg=median of negative control readout values, Rpos=median of positive control readout values, Rsample=sample readout value)
as §1
Fold selectivity between CTPS1 and CTPS2 was subsequently calculated according to the following equation: […]

Row | SMILES | IC50 (human CTPS1 [1]) [nM] | Selectivity (fold selectivity between CTPS1 and CTPS2) (human CTPS1 [2])
1 | CCOc1cncc(-c2ccc(NC(=O)C(CC)c3ccnc(NS(=O)(=O)C4CC4)n3)cc2)n1 (stereo not shown) [P105, 2-(2-(cyclopropanesulfonamido)pyrimidin-4-yl)-N-(4-(6-ethoxypyrazin-2-yl)phenyl)butanamide] | ≤ 100 | ++ (>30-60 fold (++))
2 | CCC(C(=O)Nc1ccc(-c2cncc(C(F)(F)F)n2)cc1)c1ccnc(NS(=O)(=O)C2CC2)n1 (stereo not shown) [P103, 2-(2-(cyclopropanesulfonamido)pyrimidin-4-yl)-N-(4-(6-(trifluoromethyl)pyrazin-2-yl)phenyl)butanamide] | 100 to 1000 | + (2-30 fold (+))
3 | CCC(C(=O)Nc1ccc(-c2cncc(C(F)(F)F)n2)cn1)c1ccnc(NS(=O)(=O)C2CC2)n1 (stereo not shown) [P87, 2-(2-(cyclopropanesulfonamido)pyrimidin-4-yl)-N-(5-(6-(trifluoromethyl)pyrazin-2-yl)pyridin-2-yl)butanamide] | ≤ 100 | ++ (>30-60 fold (++))
4 | CCOc1cncc(-c2ccc(NC(=O)C(CCOC)c3ccnc(NS(=O)(=O)C4CC4)n3)cc2)n1 (stereo not shown) [P110, 2-(2-(cyclopropanesulfonamido)pyrimidin-4-yl)-N-(4-(6-ethoxypyrazin-2-yl)phenyl)-4-methoxybutanamide] | ≤ 100 | ++ (>30-60 fold (++))
5 | CCC(C(=O)Nc1ccc(-c2cncc(OC)n2)cc1F)c1ccnc(NS(=O)(=O)C2CC2)n1 (stereo not shown) [P95, 2-(2-(cyclopropanesulfonamido)pyrimidin-4-yl)-N-(2-fluoro-4-(6-methoxypyrazin-2-yl)phenyl)butanamide] | ≤ 100 | + (2-30 fold (+))
6 | CCC(C(=O)Nc1ccc(-c2cncc(Cl)c2)cc1)c1ccnc(NS(=O)(=O)C2CC2)n1 (stereo not shown) [P1, N-(4-(5-Chloropyridin-3-yl)phenyI)-2-(2-(cyclopropanesulfonamido)pyrimidin-4-yl)butanamide] | 100 to 1000 | + (2-30 fold (+))
7 | CCOc1cncc(-c2ccc(NC(=O)C(CC)c3ccnc(NS(=O)(=O)C4CC4)n3)c(F)c2)n1 (stereo not shown) [P96, 2-(2-(cyclopropanesulfonamido)pyrimidin-4-yl)-N-(4-(6-ethoxypyrazin-2-yl)-2-fluorophenyl)butanamide] | ≤ 100 | + (2-30 fold (+))
8 | CCC(C(=O)Nc1ccc(-c2cncc(OCC(F)(F)F)n2)cc1)c1ccnc(NS(=O)(=O)C2CC2)n1 (stereo not shown) [P108, 2-(2-(cyclopropanesulfonamido)pyrimidin-4-yl)-N-(4-(6-(2,2,2-trifluoroethoxy)pyrazin-2-yl)phenyl)butanamide] | ≤ 100 | +++ (>60 fold (+++))
9 | CCOc1cncc(-c2ccc(NC(=O)C(C)(C)c3nc(NS(=O)(=O)C4CC4)ncc3C)cc2)n1 [P70, 2-(2-(cyclopropanesulfonamido)-5-methylpyrimidin-4-yl)-N-(4-(6-ethoxypyrazin-2-yl)phenyl)-2-methylpropanamide] | – | + (2-30 fold (+))

Next, values leading:

Row | IC50 (human CTPS1 [1]) [nM] | Selectivity (fold selectivity between CTPS1 and CTPS2) (human CTPS1 [2]) | SMILES
10 | ≤ 100 | +++ (>60 fold (+++)) | CCOc1cncc(-c2ccc(NC(=O)C(CC)c3cncc(NS(=O)(=O)C4CC4)n3)nc2)n1 (stereo not shown) [P201, 2-(6-(cyclopropanesulfonamido)pyrazin-2-yl)-N-(5-(6-ethoxypyrazin-2-yl)pyridin-2-yl)butanamide]
11 | ≤ 100 | + (2-30 fold (+)) | CCOc1cncc(-c2ccc(NC(=O)C(F)(CC)c3cncc(NS(=O)(=O)C4CC4)n3)nc2)n1 (single isomer, unassigned) [P207, 2-(6-(cyclopropanesulfonamido)pyrazin-2-yl)-N-(5-(6-ethoxypyrazin-2-yl)pyridin-2-yl)-2-fluorobutanamide]
12 | ≤ 100 | +++ (>60 fold (+++)) | CCOc1cncc(-c2ccc(NC(=O)C(F)(CC)c3ccnc(NS(=O)(=O)C4CC4)n3)nc2)n1 (single isomer, unassigned) [P114, 2-(2-(cyclopropanesulfonamido)pyrimidin-4-yl)-N-(5-(6-ethoxypyrazin-2-yl)pyridin-2-yl)-2-fluorobutanamide]
13 | ≤ 100 | ++ (>30-60 fold (++)) | CCOc1cncc(-c2ccc(NC(=O)C(F)(CC)c3cncc(NS(=O)(=O)C4CC4)n3)nc2)n1 (stereo not shown) [P200, 2-(6-(cyclopropanesulfonamido)pyrazin-2-yl)-N-(5-(6-ethoxypyrazin-2-yl)pyridin-2-yl)-2-fluorobutanamide]
14 | ≤ 100 | +++ (>60 fold (+++)) | CCOc1cncc(-c2ccc(NC(=O)C(F)(CC)c3cncc(NS(=O)(=O)C4CC4)n3)nc2)n1 (single isomer, unassigned) [P206, 2-(6-(cyclopropanesulfonamido)pyrazin-2-yl)-N-(5-(6-ethoxypyrazin-2-yl)pyridin-2-yl)-2-fluorobutanamide]
15 | ≤ 100 | + (2-30 fold (+)) | CCOc1cncc(-c2ccc(NC(=O)C(F)(CC)c3ccnc(NS(=O)(=O)C4CC4)n3)nc2)n1 (single isomer, unassigned) [P113, 2-(2-(cyclopropanesulfonamido)pyrimidin-4-yl)-N-(5-(6-ethoxypyrazin-2-yl)pyridin-2-yl)-2-fluorobutanamide]
16 | ≤ 100 | +++ (>60 fold (+++)) | CCOc1cncc(-c2ccc(C(=O)NC(CC)c3ccnc(NS(=O)(=O)C4CC4)n3)c(F)c2)n1 (stereo not shown) [P216, N-(1-(2-(cyclopropanesulfonamido)pyrimidin-4-yl)propyl)-4-(6-ethoxypyrazin-2-yl)-2-fluorobenzamide]
